In patent US20230398106A1 (NEURORIVE INC, priority 2020, published 2023):

Tested on: 5×FAD mouse
Assay: Morris water maze (MWM) task in 5×FAD mice
Assay type: in vivo
Experimental: A Morris water maze (MWM) task was conducted to examine an effect on improving cognitive function depending on the administration of the complex composition of the present invention. […] The above markers remained unchanged throughout the test period. The escape platform was placed 1 cm above the water surface or 0.5 to 1.5 cm below the water surface according to the purpose of the experiment. When placed under the water surface, the water was made opaque with white water-based paint so that the escape platform was not visible to the eye. The Morris water maze was divided into four quadrants, i.e., northeast (NE), northwest (NW), southeast (SE) and southwest (SW), wherein the escape platform was placed in the center of the southwest quadrant, and the mouse started randomly from one of the others.
The escape platform was made visible on Learning DAY 0. Each mouse was trained to recognize that it was possible to escape when they swam toward the escape platform and landed thereon. On DAY 1-4, the escape platform was hidden by being placed under the water, and then the mice learned the position of the escape platform. […] The mice were then immediately transferred to the breeding cage. On DAY 5, the probe test was performed without the escape platform. The probe test was performed by placing the mouse in the farthest part of the quadrant where the escape platform was placed during the training day, and 60 seconds was set as the time limit. The indexes of cognitive function include the escape latency which is the time required for the mouse to find the escape platform and the time spent in the quadrant where the escape platform was placed. It was judged that the shorter the time it takes to escape (FIG. 2A) and the longer the mouse stays in the quadrant where the escape platform was placed (FIG. 2B), the better the memory and learning ability of the mouse.
Then, each group was subjected to oral administration for 4 weeks to perform the experiment.

COc1cc2c(cc1OC)C(=O)C(CC1CCN(Cc3ccccc3)CC1)C2 (stereo not drawn) [Donepezil, donepezil]
escape latency reduced by, based on the mutant mouse vehicle group (2 mg/kg of donepezil alone, reduction stated in text): 14.2% | Escape latency (Increase or decrease compared to mutated mouse vehicle group) (Mutated mouse, Donepezil 2 mg/kg oral, 4 weeks, DAY 4): −14.2% | time spent in the target quadrant (Increase or decrease compared to mutated mouse vehicle group) (Mutated mouse, donepezil 2 mg/kg oral, 4 weeks, probe test DAY 5): 73.20%
